US7048907B2, “Synthesis, compositions and methods for the measurement of the concentration of stable-isotope labeled compounds in life forms and life form excretory products” (BioPhysics Assay Laboratory, Inc., priority 2001, dated 2006)

Tests used:
[1] = Kinetics of blood depletion and urine accumulation of chelates in the rat; type: in vivo; settings: average of three rats
Experimental: One half ml of Sm-DTPA (0.01 mg/kg), dissolved in saline (pH 7), is injected into the tail vein of three rats. Samples of blood are obtained at 10, 30 and 60 minutes following injection and analyzed for Sm-DTPA by neutron activation. The percent of starting amount of the Sm-DTPA at each time interval is presented in Table 18 (last column on right). Similarly, the accumulation of Sm-DTPA in the rat urine at two times is shown in the last column of Table 18.
One half ml of Technetium-99m-DTPA (1 millicurie), Gd-DTPA (0.05 mg/kg), and Sm-DTPA (0.01 mg/kg) are each dissolved in saline (pH 7), and are injected simultaneously into the tail vein of three rats. Samples of blood are obtained at 10, 30 and 60 minutes following injection and analyzed for ^99mTc-DTPA (gamma counting), Gd-DTPA (T1 relaxation) and Sm-DTPA (neutron activation).
One half ml of Sm-DTPA, La-DTPA and Eu-DTPA (each 0.01 mg/kg), dissolved in saline (pH 7) are injected simultaneously into the tail vein of three rats. Samples of blood are obtained at 10, 30 and 60 minutes following injection and analyzed for each element by neutron activation.
Samples of Sm-DTPA, La-DTPA and Eu-DTPA (0.5 ml; 0.01 mg/kg), each dissolved in saline (pH 7), are injected sequentially at 0, 20, and 40 minutes into the tail vein of three rats. Samples of blood are obtained at 10, 30 and 60 min following each injection and analyzed for each element by neutron activation.

[2] = Assay of chelate on carboxymethyl (CM) Sephadex column (chelate formation, charge); type: physicochemical; settings: for time within which the chelate forms: room temperature, Tris pH 7.5
Experimental: Preparation of carboxymethyl sephadex column. To two 10 ml plastic pipets cut off at the 3 ml mark and plugged with glass wool at the bottom add enough slurry to form a 2 ml volume of the CM sephadex. Wash the packed resin with 6 ml of 1 M Tris buffer pH 7.5, and 6 ml of 0.01M Tris buffer pH 7.5. […] Collect the eluants of fractions as follows. Fraction 1.3 ml of 0.01 M Tris buffer pH 7.5 and allow to drain into column. Fraction 2.1 ml of sample (gadolinium-DTPA or gadolinium chloride) and allow to drain into column. Apply 3 ml of 0.01 M Tris buffer pH 7.5 and allow to drain into column. Fraction 3.3 ml of 0.01M Tris buffer pH 7.5 and allow to drain into column. Dry all fractions at 70° C. for 76 hours, dissolve in 1 ml of 1 mM HCl and assay by atomic absorption.
(§1) Preparation of carboxymethyl Sephadex column. To two 10 ml plastic pipets which had been cut off at the 3 ml mark and plugged with glass wool at the bottom, enough slurry was added to form a 2 ml volume of the CM Sephadex. The packed resin was wash with 6 ml of 1 M Tris buffer pH 7.5, and 6 ml of 0.01M Tris buffer pH 7.5. […] Fractions were applied as follows. Fraction 1. Three ml of 0.01 M Tris buffer pH 7.5 and allow to drain into column. Fraction 2. One ml of sample (samarium-DTPA or samarium chloride) and allow to drain into column. Apply 3 ml of 0.01 M Tris buffer pH 7.5 and allow to drain into column. Fraction 3. Three ml of 0.01M Tris buffer pH 7.5 and allow to drain into column. Collect the eluant of fractions 1 through 3. Fraction 4. Column and contents.
as §1, with “were” for “had been”, “washed” for “wash”, “(lanthanum-DTPA” for “(samarium-DTPA”, “lanthanum” for “samarium”
as §1, with “were” for “had been”, “washed” for “wash”, “(Europium-DTPA” for “(samarium-DTPA”, “Europium” for “samarium”
Preparation of carboxymethyl sephadex column. To a 10 ml plastic pipet cut off at the 3 ml mark and plugged with glass wool at the bottom, add enough slurry to form a 2 ml volume of the CM sephadex. Wash the packed resin with 6 ml of 1 M Tris buffer pH 7.5, and 6 ml of 0.01M Tris buffer pH 7.5. […] Apply fractions as follows. Fraction 1. One ml of sample A and allow to drain into column.

[3] = Stability of chelates to autoclaving (CM-Sephadex assay); type: physicochemical; settings: for % of total / dpm: autoclaved 30 minutes at 121° C.
Experimental: A sample comprising 5 ml of Sm-DTPA, La-DTPA, and Eu-DTPA prepared in Examples 9, 10, and 11 were placed in 10 ml glass bottles, each capped with a grey butyl rubber cap, and the caps were crimped. Samples were autoclaved for 30 minutes at 121° C.
Five ml of each of Sm-DOTA, La-DOTA, and Eu-DOTA prepared in Examples 13, 14, and 15 were placed in 10 ml glass bottles capped with a grey butyl rubber cap and crimped. Samples were autoclaved for 30 minutes at 121° C. Samples were allowed to cool to room temperature and were assayed as described in Examples 25.

[4] = blood 10 min, Sm-DTPA, La-DTPA and Eu-DTPA (each 0.01 mg/kg i.v.) simultaneously administered (Example 31)
[5] = blood 10 min after each injection, Sm-DTPA, La-DTPA, Eu-DTPA (0.01 mg/kg i.v.) sequentially administered at 0, 20, 40 minutes (Example 32)
[6] = blood 30 min, Sm-DTPA, La-DTPA and Eu-DTPA simultaneously administered (Example 31)
[7] = blood 30 min after each injection, sequentially administered (Example 32)
[8] = blood 60 min, Sm-DTPA, La-DTPA and Eu-DTPA simultaneously administered (Example 31)
[9] = blood 60 min after each injection, sequentially administered (Example 32)
[10] = urine 30 min, Sm-DTPA, La-DTPA and Eu-DTPA simultaneously administered (Example 31)
[11] = urine 30 min, sequentially administered (Example 32)
[12] = urine 180 min, Sm-DTPA, La-DTPA and Eu-DTPA simultaneously administered (Example 31)
[13] = urine 180 min, sequentially administered (Example 32)
[14] = Fraction 1: 3 ml 0.01M Tris pH 7.5 before sample
[15] = Fraction 2: 1 ml sample then 3 ml 0.01M Tris pH 7.5 (eluate)
[16] = Fraction 3: further 3 ml 0.01M Tris pH 7.5
[17] = Fraction 4: column and contents (retained)
[18] = Fraction 1: sample diluted 1:10 then 2-3 ml 0.01M Tris pH 7.5 (eluate)
[19] = Fraction 2: 3 ml 0.01M Tris pH 7.5
[20] = Fraction 3: column and contents (retained)

| SMILES | Percent of initial injection, blood [1, 4] | Percent of initial injection, blood [1, 5] | Percent of initial injection, blood [1, 6] | Percent of initial injection, blood [1, 7] | Percent of initial injection, blood [1, 8] | Percent of initial injection, blood [1, 9] | Percent of initial injection, urine [1, 10] | Percent of initial injection, urine [1, 11] | Percent of initial injection, urine [1, 12] | Percent of initial injection, urine [1, 13] | % eluted from the CM-Sephadex column [2] | % of total [2, 14] | dpm [2, 14] | % of total [2, 15] | dpm [2, 15] | % of total [2, 16] | dpm [2, 16] | % of total [2, 17] | dpm [2, 17] | time within which the chelate forms [2] | other results |
| --- | --- | --- | --- | --- | --- | --- | --- | --- | --- | --- | --- | --- | --- | --- | --- | --- | --- | --- | --- | --- | --- |
| O=C([O-])CN(CCN(CC(=O)[O-])CC(=O)[O-])CCN(CC(=O)[O-])CC(=O)[O-].[Eu+3] [Eu-DTPA] | 87% of initial injection | 87% of initial injection | 62% of initial injection | 64% of initial injection | 33% of initial injection | 34% of initial injection | 21% of initial injection | 26% of initial injection | 96% of initial injection | 97% of initial injection | 100% | 0 % of total | 0 dpm | 100 % of total | 22115 dpm | 0 % of total | 0 dpm | 0 % of total | 0 dpm | ≤ 5 min | % eluted from CM-Sephadex column following autoclaving [3]: 100%; % of total [3, 18]: 97 % of total; dpm [3, 18]: 380954 dpm; % of total [3, 19]: 3 % of total; dpm [3, 19]: 13226 dpm; % of total [3, 20]: 0 % of total; dpm [3, 20]: 0 dpm |
| O=C([O-])CN(CCN(CC(=O)[O-])CC(=O)O)CCN(CC(=O)[O-])CC(=O)O.[Gd+3] [Gd-DTPA, Gd-diethylenetriaminepentaacetic acid] | – | – | – | – | – | – | – | – | – | – | 100% | 0 % of total | – | 100 % of total | – | 0 % of total | – | – | – | ≤ 5 min | Percent of initial injection, blood ([1]; blood 10 min after i.v. injection, ^99mTc-DTPA, Gd-DTPA and Sm-DTPA simultaneously administered (Example 30)): 83% of initial injection; Percent of initial injection, blood ([1]; blood 30 min, ^99mTc-DTPA, Gd-DTPA and Sm-DTPA simultaneously administered (Example 30)): 65% of initial injection; Percent of initial injection, blood ([1]; blood 60 min, ^99mTc-DTPA, Gd-DTPA and Sm-DTPA simultaneously administered (Example 30)): 35% of initial injection; Percent of initial injection, urine ([1]; urine 30 min, ^99mTc-DTPA, Gd-DTPA and Sm-DTPA simultaneously administered (Example 30)): 22% of initial injection; Percent of initial injection, urine ([1]; urine 180 min, ^99mTc-DTPA, Gd-DTPA and Sm-DTPA simultaneously administered (Example 30)): 94% of initial injection |
| O=C([O-])CN(CCN(CC(=O)[O-])CC(=O)[O-])CCN(CC(=O)[O-])CC(=O)[O-].[La+3] [La-DTPA] | 85% of initial injection | 82% of initial injection | 63% of initial injection | 62% of initial injection | 33% of initial injection | 32% of initial injection | 23% of initial injection | 25% of initial injection | 92% of initial injection | 95% of initial injection | 100% | 0 % of total | 0 dpm | 100 % of total | 489692 dpm | 0 % of total | 0 dpm | 0 % of total | 0 dpm | ≤ 5 min | % eluted from CM-Sephadex column following autoclaving [3]: 100%; % of total [3, 18]: 97 % of total; dpm [3, 18]: 411400 dpm; % of total [3, 19]: 3 % of total; dpm [3, 19]: 12180 dpm; % of total [3, 20]: 0 % of total; dpm [3, 20]: 0 dpm |
